Source: patent publication US7604990B2, “Methods of regulating differentiation in stem cells” (ES Cell International Pte Ltd., priority 2002, dated 2009)

Tested on: sphingosine kinase (SPK) in hES cells
Assay: Sphingosine kinase activity in hES cells after PDGF
Type: cell-based, human
Details: PDGF 20 ng/ml
Protocol: hES-3 cells plated without MEF for 24 hr and depleted of serum for a further 18 hr were incubated in the presence of PDGF (20 ng/ml) for various time periods and were harvested and lysed by sonication (2 W for 30 s at 4° C.) in lysis buffer containing 50 mM Tris/HCl (pH 7.4), 10% glycerol, 0.05% Triton X-100, 150 mM NaCl, 1 mM dithiothreitol, 2 mM Na3VO4, 10 mM NaF, 1 mM EDTA and protease inhibitors (Complete™, Roche, Mannheim, Germany). SPK activity was determined using D-erythro-sphingosine and […] as substrates, as previously described^19. Protein concentrations in cell homogenates were determined with Coomassie Brilliant Blue reagent (Bio-Rad, Regent Park, NSW, Australia) using bovine serum albumin as standard.

Substance: PDGF
- duration of SPK activity enhancement: at least 60 min
- SPK activity (30 min, value printed in brackets after 'basal values', n=3): 75.3 ± 3.92 nmol/min/mg
- SPK activity relative to basal values (after 30 min of incubation): 1.6 fold
